# Measurements as given in patent US11058702B2 (EMEK, Inc., priority 2014, dated 2021).
# Where two headings read alike, the source gives them in different places.
# Assays:
# [1] = tested on: cellular DNA of tumor and normal tissues; assay: Clinical Phase I/II trials of ci IUdR + RT: % IUdR-DNA cellular incorporation, plasma level, toxicity; type: in vivo, human
# Protocol: In the prior clinical Phase I and II trials of continuous intravenous infusions of IUdR+RT for high-grade gliomas (Table 1), high-grade sarcomas (Table 2), in patients with liver metastases for colorectal cancer, and in patients with head and neck cancers, the % IUdR-DNA cellular incorporation was measured in tumor tissue as well as normal tissues, including normal liver and in circulating blood cells (granulocytes).
# in vivo = assay: in vivo
# Protocol: No further dose escalations were used because of the increased risk of pulmonary aspiration with larger drug volumes (≥2000 mg/kg/d).
# [2] = IV IUdR
# [3] = tested on: high-grade primary brain tumors; conditions: cited from earlier work; for Median survival (Months): RT + IUdR
# high-grade sarcomas = conditions: cited from earlier work
# [4] = tested on: cellular DNA of tumor and normal tissues; conditions: cited from earlier work
# [5] = IV or IA IUdR; cited from earlier work
# [6] = tested on: human bladder cancer cell line; conditions: IUdR for 48 hours prior to one-hour exposure to cisplatin; cited from earlier work
# [7] = tested on: human bladder and cervical cancer cells; conditions: cited from earlier work
# [8] = tested on: cellular DNA of tumor and normal rectal mucosa; assay: Clinical trial of ci BUdR in locally advanced cervical cancer: DNA incorporation; type: in vivo, human
# [9] = tested on: cellular DNA of tumor and normal rectal mucosa; conditions: cited from earlier work
structure (smiles),measurement,setting,value
"O=c1[nH]c(=O)n([C@H]2C[C@H](O)[C@@H](CO)O2)cc1I [IUdR, 5-iodo-2′-deoxyuridine]",DNA-replacement/day,"[1]; ci IUdR 1000 mg/M^2, H&N SCC",1.3%
same,TI of ci IUdR in the clinical studies,[1]; from % IUdR-DNA incorporation at grade 3 or 4 toxicities,~1
same,weight loss,"in vivo; ci IUdR 100 mg/kg/d, by day 6",≥ 20%
same,"GI toxicity, body weight loss","in vivo; ci IUdR×6-14 days, xenograft studies",> 20%
same,MTD at 4 days,"in vivo; mouse, in vivo, po, 250 mg/kg/d",250 mg/kg/day
same,LD50,[2],never reached
same,Median survival (Months),"[3]; Anaplastic astrocytomas (Grade 3 of 4), RT alone 24",39 Months
same,Median survival (Months),"[3]; Glioblastoma Multiforme (Grade 4 of 4), RT alone 9",15 Months
same,prolongation of survival compared to RT alone,[3]; ci IUdR+RT,greater than 50%
same,Local Control at 2 years,"high-grade sarcomas; High grade sarcomas (resectable), RT + IUdR + Surgery, RT + Surgery 25%",45%
same,Local Control at 2 years,"high-grade sarcomas; High grade sarcomas (un-resectable), RT + IUdR, RT alone <10%",60%
same,% IUdR-DNA levels,"[4]; 5-7 day ci IUdR infusion, locally advanced head & neck cancers",> 5%
same,IUdR-DNA tumor cell levels (plateau),"[4]; ci IUdR 1000 mg/M^2, within 5 days, H&N SCC",7.5-8%
same,steady state plasma concentration,[4]; ci IUdR exposure that produced clinical responses,1 µM
same,local control,"[4]; ci IUdR+RT, locally advanced head & neck cancers",high local control rate
same,% IUdR-DNA levels in peripheral granulocytes that predicted systemic bone marrow toxicity,[4]; ci IUdR,6%
same,plasma level of IUdR to achieve >3% IUdR-DNA cellular incorporation,[4]; ci IUdR,> 1000 nM
same,threshold of % IUdR-DNA tumor cell incorporation associated with in vivo radiosensitization,"[4]; human, in vivo",≥ 3%
same,toxicities of prolonged ci of IUdR,"[4]; human, in vivo",myelosuppression and acute GI toxicities
same,% IUdR-DNA cellular incorporation in tumors,[4]; patients with head and neck cancers or liver metastases from colorectal cancer,5-8%
same,% IUdR-DNA cellular incorporation in adjacent normal liver tissue,[4]; patients with liver metastases,less than 1%
same,plasma half-life,[5],< 5 min
same,dose-modifying factors at 10% survival,[6],up to 3.5
same,radiation sensitizer enhancement,[7]; IUdR (2 μM) + hydroxyurea,approximately 1.75
same,increase in IdUTP pools and IUdR-DNA incorporation,[7]; IUdR (2 μM) + non-cytotoxic doses of hydroxyurea,2 fold
"O=c1[nH]c(=O)n([C@H]2C[C@H](O)[C@@H](CO)O2)cc1Br [BUdR, bromodeoxyuridine]",ratio of tumor to rectum,[8],1.5-1.8 fold
same,tumor cell IUdR-DNA incorporation,"[9]; ci BUdR 1000 mg/M^2/day×4 days, Day 5",5-8%
same,IUdR-DNA incorporation in adjacent normal rectal mucosa cells,[9]; ci BUdR,3-4%
